Numbered stars: 1 amine (or outer) side, 2 acyl side, 3 side chain; on linkers, the order of the positions; unused ones are H or OH. Square brackets hold non-standard residues; d marks the D form. Peptide text beside a SMILES is read from it. X1 = O=C([C@@H](C[C@H]1CO1)O[*:1])[*:2]; NMeI = CC[C@H](C)[C@H](NC)C(=O)O; NMeβAla = CN(CCC(=O)[*:2])[*:1]; NMeV = CN[C@H](C(=O)O)C(C)C; NMeA = CN[C@@H](C)C(=O)O; βAla = NCCC(=O)O
Tested on: Osteoclast
Assay: Induction of morphological changes in mouse Osteoclast cells incubated for 24 hrs by TRAP staining based fluorescence microscopy analysis
Type: functional

Molecule `CC[C@H](C)[C@@H]1NC(=O)[C@@H]2CCCN2C(=O)[C@@H](C[C@H]2CO2)OC(=O)CCNC(=O)[C@H](C)NC(=O)[C@H](C(C)C)N(C)C1=O` (cyclo(A[βAla][X1]PI[NMeV])) has an Activity greater than 50 µM.
`CC[C@H](C)[C@@H]1NC(=O)[C@@H]2CCCN2C(=O)[C@@H](C[C@H]2CO2)OC(=O)CCNC(=O)[C@H](C)N(C)C(=O)[C@H](C(C)C)NC1=O` (cyclo(IV[NMeA][βAla][X1]P)) showed an Activity of 1.6 µM.
Molecule `CC[C@H](C)[C@@H]1NC(=O)[C@@H]2CCCN2C(=O)[C@@H](C[C@H]2CO2)OC(=O)CCN(C)C(=O)[C@H](C)N(C)C(=O)[C@H](C(C)C)N(C)C1=O` (cyclo(I[NMeV][NMeA][NMeβAla][X1]P)) has an Activity of 50 µM.
With `CC[C@H](C)[C@H]1C(=O)N(C)[C@@H](C(C)C)C(=O)N(C)[C@@H](C)C(=O)NCCC(=O)O[C@H](C[C@H]2CO2)C(=O)N2CCC[C@H]2C(=O)N1C` (cyclo([NMeA][βAla][X1]P[NMeI][NMeV])) the Activity was 12.5 µM.
